This passage reports IC50 results from patent US20260250320A1, “LIPIDATED PEPTIDE INHIBITORS OF INTERLEUKIN-23 RECEPTOR” (Janssen Pharmaceutica NV, priority 2023, published 2026).

The test deals with T1, IL-23R (Homo sapiens, UniProt Q5VWK5).
T1 construct: HEK293 cells containing IL-23R, IL-12Rβ1 and a firefly luciferase reporter gene driven by a STAT-inducible promoter (Promega); host or cells: HEK293
T1 sequence (Q5VWK5 24-629): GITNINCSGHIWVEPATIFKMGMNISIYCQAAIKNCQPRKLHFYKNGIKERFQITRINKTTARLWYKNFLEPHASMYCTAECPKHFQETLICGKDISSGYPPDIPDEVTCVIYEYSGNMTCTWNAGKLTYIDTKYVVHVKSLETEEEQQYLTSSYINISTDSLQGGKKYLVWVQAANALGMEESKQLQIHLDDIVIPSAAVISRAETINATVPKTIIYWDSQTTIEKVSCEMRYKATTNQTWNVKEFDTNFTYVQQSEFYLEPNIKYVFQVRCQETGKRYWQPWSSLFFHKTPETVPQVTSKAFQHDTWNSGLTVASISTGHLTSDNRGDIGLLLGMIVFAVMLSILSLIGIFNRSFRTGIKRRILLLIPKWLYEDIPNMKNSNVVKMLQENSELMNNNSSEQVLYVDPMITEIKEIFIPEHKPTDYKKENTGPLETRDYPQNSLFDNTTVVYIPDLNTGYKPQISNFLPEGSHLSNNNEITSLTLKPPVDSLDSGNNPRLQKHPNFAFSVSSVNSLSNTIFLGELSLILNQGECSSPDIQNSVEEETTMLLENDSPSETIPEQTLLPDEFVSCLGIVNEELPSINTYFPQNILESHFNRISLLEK
As to the kind of experiment: IL23R Reporter Assay. The format is cell-based. Conditions: HEK293 cells containing IL-23R, IL-12Rβ1 and STAT-inducible firefly luciferase reporter; 10 ng/mL IL-23 (EC90); 5 h. How it is done: Compounds were serially diluted in 100% (v/v) DMSO) and plated using an Echo acoustic dispenser (Labcyte) into 1536-well non-treated black assay plates (Corning #9146). 3 μL of HEK293 cells containing IL-23R, IL-12Rβ1 and a firefly luciferase reporter gene driven by a STAT-inducible promoter (Promega) were added to the plates (4000 cells/well), followed by 3 μL of 10 ng/mL IL-23 (equivalent to EC90 concentration). After 5 h at 37° C., 5% CO2, 95% relative humidity, cells were placed at 20° C. and treated with BioGlo reagent (Promega) according to the Manufacturer's instructions. Luminescence was measured on a Pherastar FSX (BMG LabTech). Data were normalized to IL-23 treatment (0% inhibition) and 30 μM of control inhibitor (100% inhibition), and IC50 values were determined using a 4-parameter Hill equation.
A general note: Reporter assays use an easily measured gene product as a stand-in for the process of interest.

*1 amine or outer side, *2 acyl side, *3 side chain or, on linkers, in order; H or OH if unused. Where a SMILES comes first, the peptide text is derived from it. Bridges are numbered along the chain shown (N, C = ends). Side-chain parts run from the residue outwards. [ ]: non-standard residue; d: D form. The star is where a group is joined. Me3N+(CH2)2O(CH2)2O(CH2)2CO = C[N+](C)(C)CCOCCOCCC(=O)*; Trp(7-Me) = Cc1cccc2c(C[C@H](N)C(=O)O)c[nH]c12; Abu(4-yl) = O=C([C@H](CC[*:3])N[*:1])[*:2]; C18 diacid = O=C(O)CCCCCCCCCCCCCCCCC(=O)*; γGlu = O=C(O)[C@H](CCC(=O)[*:2])N[*:1]; 2Nal = N[C@@H](Cc1ccc2ccccc2c1)C(=O)O; AEF = NCCOc1ccc(C[C@H](N)C(=O)O)cc1; X2 = C[N+](C)(C)C[C@@H](CC(=O)O)N*; 3Pal = N[C@@H](Cc1cccnc1)C(=O)O; Lys(Me) = CNCCCC[C@H](N)C(=O)O; NMeK = CN[C@@H](CCCCN)C(=O)O; Pen = CC(C)(S)[C@H](N)C(=O)O; Suc = O=C(CCC(=O)[*:2])[*:1]; Lauroyl = CCCCCCCCCCCC(=O)*; αMeC = C[C@](N)(CS)C(=O)O; Thp = NC1(C(=O)O)CCOCC1; X1 = C[N+](C)(C)CCCCC*; AEEA = NCCOCCOCC(=O)O; Sar = CNCC(=O)O Some results are limits rather than exact numbers.

The IC50 is the concentration that gives 50% inhibition. `CCCCCCCCCCCCCC(=O)N(C)CC(=O)N[C@@H](CO)C(=O)N(C)CC(=O)N[C@@H](CO)C(=O)N(C)CC(=O)N[C@@H](CO)C(=O)N(C)CC(=O)NCCCC[C@H](NC(=O)CN(C)C(=O)[C@H](Cc1cccnc1)NC(=O)[C@H](CC(N)=O)NC(=O)[C@H](CCC(=O)O)NC(=O)C1(NC(=O)[C@H](Cc2ccc3ccccc3c2)NC(=O)[C@H](Cc2ccc(OCCN)cc2)NC(=O)C2NC(=O)[C@H](CCCCNC(C)=O)NC(=O)[C@H](Cc3c[nH]c4c(C)cccc34)NC(=O)[C@H]([C@@H](C)O)NC(=O)[C@H](CC(N)=O)NC(=O)[C@@H](NC(C)=O)C(C)(C)SSC2(C)C)CCOCC1)C(N)=O` (stereo partly drawn) [compound 1, MeCO-Pen(3)-N-T-7MeW-K(Ac)-Pen(3)-AEF-2Nal-THP-E-N-3Pya-Sar-K(Sar-S-Sar-S-Sar-S-Sar-C14)-CONH2]: the half-inhibitory concentration (IC50) is less than 50 nM.

As for `CCCCCCCCCCCC(=O)N[C@@H](CCC(=O)NCCOCCOCC(=O)NCCOCCOCC(=O)N[C@H](CCCNC(=N)N)C(=O)N[C@H]1CCSC[C@@](C)(C(=O)N[C@@H](Cc2ccc(OCCN)cc2)C(=O)N[C@@H](Cc2ccc3ccccc3c2)C(=O)NC2(C(=O)N[C@@H](CCC(=O)O)C(=O)N[C@@H](CC(N)=O)C(=O)N[C@@H](Cc3cccnc3)C(=O)N(C)CC(N)=O)CCOCC2)NC(=O)[C@H](CCCCNC(C)=O)NC(=O)[C@H](Cc2c[nH]c3c(C)cccc23)NC(=O)[C@H]([C@@H](C)O)NC(=O)[C@H](CC(N)=O)NC1=O)C(=O)O` [compound 6, C12gEPEG2PEG2CO-r-Abu(1)-N-T-7MeW-K(Ac)-aMeC(1)-AEF-2Nal-THP-E-N-ePya-Sar CONH2] ({Lauroyl-γGlu-AEEA-AEEA}-[dR][Abu(4-yl)]NT[Trp(7-Me)]K(Ac)[αMeC][AEF][2Nal][Thp]EN[3Pal][Sar]-NH2; thioether 2-7), the IC50 was less than 50 nM.

With `CC(=O)N[C@H](CCCNC(=N)N)C(=O)N[C@@H]1C(=O)N[C@@H](CC(N)=O)C(=O)N[C@@H]([C@@H](C)O)C(=O)N[C@@H](Cc2c[nH]c3c(C)cccc23)C(=O)N[C@@H](CCCCNC(=O)CCC(=O)N[C@H](CC(=O)O)C[N+](C)(C)C)C(=O)N[C@H](C(=O)N[C@@H](Cc2ccc(OCCN)cc2)C(=O)N[C@@H](Cc2ccc3ccccc3c2)C(=O)NC2(C(=O)N[C@@H](CCC(=O)O)C(=O)N[C@@H](CC(N)=O)C(=O)N[C@@H](Cc3cccnc3)C(=O)N(C)[C@@H](CCCCNC(=O)COCCOCCNC(=O)COCCOCCNC(=O)CC[C@H](NC(=O)CCCCCCCCCCCCCCCCC(=O)O)C(=O)O)C(N)=O)CCOCC2)C(C)(C)SSC1(C)C` [compound 29, MeCO-r-Pen(3)-N-T-7MeW-K(D)-Pen(3)-AEF-2Nal-THP-E-N-3Pya-NMeK(PEG2PEG2gEC18OH)-CONH2] (Ac-[dR][Pen]NT[Trp(7-Me)]K([Suc-X2])[Pen][AEF][2Nal][Thp]EN[3Pal][NMeK]([AEEA-AEEA-γGlu-C18 diacid])-NH2; disulfide 2-7), the concentration for half-maximal inhibition (IC50) fell in the range of 50 to 500 nM.

For `CC(=O)NCCCC[C@@H]1NC(=O)[C@H](Cc2c[nH]c3c(C)cccc23)NC(=O)[C@H]([C@@H](C)O)NC(=O)[C@H](CCCCNC(=O)CCC(=O)N[C@H](CC(=O)O)C[N+](C)(C)C)NC(=O)[C@@H](NC(=O)[C@@H](CCCNC(=N)N)NC(=O)COCCOCCNC(=O)COCCOCCNC(=O)CC[C@H](NC(=O)CCCCCCCCCCCCCCCCC(=O)O)C(=O)O)C(C)(C)SSC(C)(C)[C@@H](C(=O)N[C@@H](Cc2ccc(OCCN)cc2)C(=O)N[C@@H](Cc2ccc3ccccc3c2)C(=O)NC2(C(=O)N[C@@H](CCC(=O)O)C(=O)N[C@@H](CC(N)=O)C(=O)N[C@@H](Cc3cccnc3)C(=O)N(C)CC(N)=O)CCOCC2)NC1=O` [compound 47, HOC18gEPEG2PEG2CO-r-Pen(3)-K(d)-T-7MeW-K(Ac)-Pen(3)-AEF-2Nal-THP-E-N-3Pya-Sar-CONH2] ({C18 diacid-γGlu-AEEA-AEEA}-[dR][Pen]K([Suc-X2])T[Trp(7-Me)]K(Ac)[Pen][AEF][2Nal][Thp]EN[3Pal][Sar]-NH2; disulfide 2-7), the IC50 is less than 50 nM.

As to `CC(=O)N(C)CCCC[C@@H]1NC(=O)[C@H](Cc2c[nH]c3c(C)cccc23)NC(=O)[C@H]([C@@H](C)O)NC(=O)[C@H](CC(=O)N(C)C)NC(=O)[C@@H](NC(=O)[C@H](CCCCNC(=O)COCCOCCNC(=O)COCCOCCNC(=O)CC[C@H](NC(=O)CCCCCCCCCCCCCCCCC(=O)O)C(=O)O)NC(=O)CCOCCOCC[N+](C)(C)C)C(C)(C)SSC(C)(C)[C@@H](C(=O)N[C@@H](Cc2ccc(OCCN)cc2)C(=O)N[C@@H](Cc2ccc3ccccc3c2)C(=O)NC2(C(=O)N[C@@H](CCCCN(C)C(C)=O)C(=O)N[C@@H](CC(N)=O)C(=O)N[C@@H](Cc3cccnc3)C(=O)N(C)CC(N)=O)CCOCC2)NC1=O` [compound 68, cPEG3aCO-K(PEG2PEG2gEC18OH)-Pen(3)-N(N(Me)2)-T-7MeW-K(NMeAc)-Pen(3)-AEF-2Nal-THP-K(NMeAc)-N-3Pya-Sar-CONH2] ({Me3N+(CH2)2O(CH2)2O(CH2)2CO}-K([AEEA-AEEA-γGlu-C18 diacid])[Pen]D(NMe2)T[Trp(7-Me)][Lys(Me)](Ac)[Pen][AEF][2Nal][Thp][Lys(Me)](Ac)N[3Pal][Sar]-NH2; disulfide 2-7), the IC50 was not below 500 nM.

The molecule `CC(=O)NCCCC[C@@H]1NC(=O)[C@H](Cc2c[nH]c3c(C)cccc23)NC(=O)[C@H]([C@@H](C)O)NC(=O)[C@H](CC(N)=O)NC(=O)[C@@H](NC(=O)[C@@H](CCCNC(=N)N)NC(C)=O)C(C)(C)SSC(C)(C)[C@@H](C(=O)N[C@@H](Cc2ccc(OCCCCC[N+](C)(C)C)cc2)C(=O)N[C@@H](Cc2ccc3ccccc3c2)C(=O)NC2(C(=O)N[C@@H](CCC(=O)O)C(=O)N[C@@H](CC(N)=O)C(=O)N[C@@H](Cc3cccnc3)C(=O)N(C)CC(=O)N[C@@H](CCCCNC(=O)COCCOCCNC(=O)COCCOCCNC(=O)CC[C@H](NC(=O)CCCCCCCCCCCCCCCCC(=O)O)C(=O)O)C(N)=O)CCOCC2)NC1=O` [compound 69, MeCO-r-Pen(3)-N-T-7MeW-K(Ac)-Pen(3)-TMAPF-2Nal-THP-E-N-3Pya-Sar-K(PEG2PEG2C18OH)-CONH2] (Ac-[dR][Pen]NT[Trp(7-Me)]K(Ac)[Pen]Y(X1)[2Nal][Thp]EN[3Pal][Sar]K([AEEA-AEEA-γGlu-C18 diacid])-NH2; disulfide 2-7) registered an IC50 of 50 to 500 nM.

Take `CC(=O)NCCCC[C@@H]1NC(=O)[C@H](Cc2c[nH]c3c(C)cccc23)NC(=O)[C@H]([C@@H](C)O)NC(=O)[C@H](CC(N)=O)NC(=O)[C@@H](NC(C)=O)C(C)(C)SSC(C)(C)[C@@H](C(=O)N[C@@H](Cc2ccc(OCCN)cc2)C(=O)N[C@@H](Cc2ccc3ccccc3c2)C(=O)NC2(C(=O)N[C@@H](CCC(=O)O)C(=O)N[C@@H](CC(N)=O)C(=O)N[C@@H](Cc3cccnc3)C(=O)N(C)CC(=O)N[C@@H](CCCCNC(=O)COCCOCCNC(=O)COCCOCCNC(=O)CC[C@H](NC(=O)CCCCCCCCCCCCCCCCCCC(=O)O)C(=O)O)C(=O)NCCOCCOCC[N+](C)(C)C)CCOCC2)NC1=O` [compound 93, MeCO-Pen(3)-N-T-7MeW-K(Ac)-Pen(3)-AEF-2Nal-THP-K(Ac)-N-3Pya-Sar-K(PEG2PEG2gEC20OH)-CONH(PEG3a)]: the IC50 was in the range of 50 to 500 nM.
